Assay results reported in the CheMixHub ionic liquid set.
Where “and” joins values, the source holds several entries; their conditions need not be identical. Identical values can stand only once.

Test: xn = mol fraction of the nth substance listed
Details: 101.3 kPa

CCCC[N+]1(C)CCCCC1.F[P-](F)(F)(F)(F)F + CCCC[n+]1cccc(C)c1.F[P-](F)(F)(F)(F)F + CCCC[N+]1(C)CCCC1.F[P-](F)(F)(F)(F)F
viscosity
Details	298.15 K	303.15 K	308.15 K	313.15 K	318.15 K	323.15 K	328.15 K	333.15 K
x2 = 0.2, x1 = 0.32	–	–	–	–	596 mPa·s	439 mPa·s	329 mPa·s	250 mPa·s
x2 = 0.3, x1 = 0.28	–	–	964 mPa·s	684 mPa·s	495 mPa·s	365 mPa·s	274 mPa·s	210 mPa·s
x2 = 0.4, x1 = 0.06	–	794 mPa·s	568 mPa·s	413 mPa·s	306 mPa·s	232 mPa·s	178 mPa·s	139 mPa·s
x2 = 0.4, x1 = 0.12	–	916 mPa·s	648 mPa·s	467 mPa·s	344 mPa·s	258 mPa·s	197 mPa·s	153 mPa·s
x2 = 0.4, x1 = 0.18	–	964 mPa·s	680 mPa·s	488 mPa·s	358 mPa·s	268 mPa·s	204 mPa·s	158 mPa·s
x2 = 0.4, x1 = 0.24	1666 mPa·s and 1686 mPa·s	1130 mPa·s and 1143 mPa·s	783 mPa·s and 791 mPa·s	556 mPa·s and 561 mPa·s	404 mPa·s and 407 mPa·s	300 mPa·s and 302 mPa·s	227 mPa·s and 229 mPa·s	175 mPa·s and 176 mPa·s
x2 = 0.4, x1 = 0.3	1857 mPa·s	1248 mPa·s	859 mPa·s	606 mPa·s	437 mPa·s	323 mPa·s	243 mPa·s	186 mPa·s
x2 = 0.4, x1 = 0.36	2084 mPa·s	1390 mPa·s	948 mPa·s	664 mPa·s	476 mPa·s	349 mPa·s	261 mPa·s	199 mPa·s
x2 = 0.4, x1 = 0.42	2332 mPa·s	1544 mPa·s	1045 mPa·s	727 mPa·s	518 mPa·s	378 mPa·s	281 mPa·s	214 mPa·s
x2 = 0.4, x1 = 0.48	2615 mPa·s	1714 mPa·s	1152 mPa·s	795 mPa·s	563 mPa·s	408 mPa·s	302 mPa·s	228 mPa·s
x2 = 0.4, x1 = 0.54	2945 mPa·s	1917 mPa·s	1278 mPa·s	875 mPa·s	615 mPa·s	444 mPa·s	327 mPa·s	246 mPa·s
x2 = 0.5, x1 = 0.2	–	–	648 mPa·s	465 mPa·s	340 mPa·s	253 mPa·s	192 mPa·s	149 mPa·s
x2 = 0.6, x1 = 0.16	–	–	534 mPa·s	385 mPa·s	284 mPa·s	213 mPa·s	163 mPa·s	–
x2 = 0.7, x1 = 0.12	–	–	–	325 mPa·s	241 mPa·s	182 mPa·s	140 mPa·s	–
x2 = 0.8, x1 = 0.08	–	–	–	–	206 mPa·s	157 mPa·s	121 mPa·s	–
x2 = 0.9, x1 = 0.04	–	–	–	–	–	136 mPa·s	106 mPa·s	–
